Experiments:
velvetleaf = experiment: Test B pre/postemergence velvetleaf; assay type: in vivo, Abutilon theophrasti
Method in brief: (§1)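 Response is a visual 0-to-10 score relative to untreated plants, where 0 means no effect and 10 means complete control, taken twelve to sixteen days after application. Treatments went onto soil at planting and onto foliage of 1- to 4-leaf plants, using a surfactant-containing non-phytotoxic solvent.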

rice = experiment: Test B flood test rice; assay type: in vivo, Oryza sativa
Method in brief: (§2)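 Flood test on plants grown to the 2-leaf stage; treated plants kept in greenhouse twelve to sixteen days, then visually rated against controls on a 0 (no effect) to 10 (complete control) scale.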

corn = experiment: Test B pre/postemergence corn; assay type: in vivo, Zea mays
Method in brief: as §1

smallflower flatsedge = experiment: Test B flood test smallflower flatsedge; assay type: in vivo, Cyperus difformis
Method in brief: as §2

wild oat = experiment: Test B pre/postemergence wild oat; assay type: in vivo, Avena fatua
Method in brief: as §1

bamyardgrass = experiment: Test B flood test barnyardgrass; assay type: in vivo, Echinochloa crus-galli
Method in brief: as §2

sugar beet = experiment: Test B pre/postemergence sugar beet; assay type: in vivo, Beta vulgaris
Method in brief: as §1

surinam grass = experiment: Test B pre/postemergence surinam grass; assay type: in vivo, Brachiaria decumbens
Method in brief: as §1

bedstraw = experiment: Test B pre/postemergence bedstraw; assay type: in vivo, Galium aparine
Method in brief: as §1

pigweed = experiment: Test B pre/postemergence pigweed; assay type: in vivo, Amaranthus retroflexus
Method in brief: as §1

cocklebur = experiment: Test B pre/postemergence cocklebur; assay type: in vivo, Xanthium strumarium
Method in brief: as §1

giant foxtail = experiment: Test B pre/postemergence giant foxtail; assay type: in vivo, Setaria faberii
Method in brief: as §1

crabgrass = experiment: Test B pre/postemergence crabgrass; assay type: in vivo, Digitaria sanguinalis
Method in brief: as §1

blackgrass = experiment: Test B pre/postemergence blackgrass; assay type: in vivo, Alopecurus myosuroides
Method in brief: as §1

soybean = experiment: Test B pre/postemergence soybean; assay type: in vivo, Glycine max
Method in brief: as §1

purple nutsedge = experiment: Test B pre/postemergence purple nutsedge; assay type: in vivo, Cyperus rotundus
Method in brief: as §1

[1] = Postemergence, Rate 62 g/ha, scale 0 to 10, 0 is no effect, 10 is complete control
[2] = Postemergence, Rate 125 g/ha, scale of 0 to 10 where 0 is no effect and 10 is complete control
[3] = Postemergence, Rate 250 g/ha, scale of 0 to 10, 0 is no effect, 10 is complete control
[4] = Preemergence, Rate 62 g/ha, scale 0 to 10 (0 no effect, 10 complete control)
[5] = Preemergence, Rate 125 g/ha, scale of 0 to 10 where 0 is no effect and 10 is complete control
[6] = Preemergence, Rate 250 g/ha, scale 0 to 10 (0 no effect, 10 complete control)
[7] = Preemergence, Rate 500 g/ha, scale of 0 to 10 where 0 is no effect and 10 is complete control
[8] = Rate 62 g/ha, flood test species, Pre-emergence, visual evaluation after twelve to sixteen days
[9] = Rate 125 g/ha, under heading Pre-emergence, flood test species, visual evaluation after twelve to sixteen days
[10] = Rate 250 g/ha, Pre-emergence (flood test species), scale 0 to 10, 0 is no effect, 10 is complete control
[11] = Rate 500 g/ha, Pre-emergence section of Table B, 0 to 10 scale (0 no effect, 10 complete control)
[12] = Postemergence, Rate 500 g/ha, scale of 0 to 10 where 0 is no effect and 10 is complete control

CC(C)N(C(=O)n1oc(=O)n(CNC(=O)c2ccccc2)c1=O)c1ccccc1 [Compound 620]
Plant response rating, Velvetleaf (velvetleaf; [1]): 0 | Plant response rating, Velvetleaf (velvetleaf; [2]): 0 | Velvetleaf plant response rating (velvetleaf; [3]): 0 | Velvetleaf plant response rating (velvetleaf; [4]): 0 | Velvetleaf plant response rating (velvetleaf; [5]): 0 | Plant response rating, Velvetleaf (velvetleaf; [6]): 0 | Plant response rating, Velvetleaf (velvetleaf; [7]): 0 | Plant response rating, Rice (0 to 10 scale, 0 is no effect, 10 is complete control) (rice; [8]): 0 | Rice plant response rating (0 to 10 scale, 0 is no effect, 10 is complete control) (rice; [9]): 0 | Rice plant response rating (rice; [10]): 0 | Rice plant response rating (rice; [11]): 0 | Plant response rating, Corn (corn; [1]): 0 | Plant response rating, Corn (corn; [2]): 0 | Corn plant response rating (corn; [3]): 0 | Plant response rating, Corn (corn; [12]): 0 | Corn plant response rating (corn; [4]): 0 | Corn plant response rating (corn; [5]): 0 | Plant response rating, Corn (corn; [6]): 0 | Plant response rating, Corn (corn; [7]): 0 | Plant response rating, S. Flatsedge (0 to 10 scale, 0 is no effect, 10 is complete control) (smallflower flatsedge; [8]): 0 | S. Flatsedge plant response rating (0 to 10 scale, 0 is no effect, 10 is complete control) (smallflower flatsedge; [9]): 0 | S. Flatsedge plant response rating (smallflower flatsedge; [10]): 0 | S. Flatsedge plant response rating (smallflower flatsedge; [11]): 0 | Plant response rating, Wild oats (wild oat; [1]): 0 | Plant response rating, Wild oats (wild oat; [2]): 0 | Wild oats plant response rating (wild oat; [3]): 0 | Wild oats plant response rating (wild oat; [4]): 0 | Wild oats plant response rating (wild oat; [5]): 0 | Plant response rating, Wild oats (wild oat; [6]): 0 | Plant response rating, Wild oats (wild oat; [7]): 0 | Plant response rating, Barnyardgrass (0 to 10 scale, 0 is no effect, 10 is complete control) (bamyardgrass; [8]): 0 | Barnyardgrass plant response rating (0 to 10 scale, 0 is no effect, 10 is complete control) (bamyardgrass; [9]): 0 | Barnyardgrass plant response rating (bamyardgrass; [10]): 0 | Barnyardgrass plant response rating (bamyardgrass; [11]): 0 | Plant response rating, Sugarbeets (sugar beet; [1]): 0 | Plant response rating, Sugarbeets (sugar beet; [2]): 0 | Sugarbeets plant response rating (sugar beet; [3]): 0 | Sugarbeets plant response rating (sugar beet; [4]): 0 | Sugarbeets plant response rating (sugar beet; [5]): 0 | Plant response rating, Sugarbeets (sugar beet; [6]): 0 | Plant response rating, Sugarbeets (sugar beet; [7]): 0 | Plant response rating, B. signalgrass (surinam grass; [1]): 0 | Plant response rating, B. signalgrass (surinam grass; [2]): 0 | B. signalgrass plant response rating (surinam grass; [3]): 0 | Plant response rating, B. signalgrass (surinam grass; [12]): 0 | B. signalgrass plant response rating (surinam grass; [4]): 0 | B. signalgrass plant response rating (surinam grass; [5]): 0 | Plant response rating, B. signalgrass (surinam grass; [6]): 0 | B. signalgrass plant response rating (surinam grass; [7]): 0 | Plant response rating, Bedstraw (bedstraw; [1]): 0 | Bedstraw plant response rating (bedstraw; [4]): 0 | Bedstraw plant response rating (bedstraw; [5]): 0 | Plant response rating, Bedstraw (bedstraw; [6]): 0 | Bedstraw plant response rating (bedstraw; [7]): 0 | Plant response rating, Redroot pigweed (pigweed; [1]): 0 | Plant response rating, Redroot pigweed (pigweed; [2]): 0 | Redroot pigweed plant response rating (pigweed; [3]): 0 | Redroot pigweed plant response rating (pigweed; [4]): 0 | Redroot pigweed plant response rating (pigweed; [5]): 0 | Plant response rating, Redroot pigweed (pigweed; [6]): 0 | Plant response rating, Redroot pigweed (pigweed; [7]): 0 | Plant response rating, Cocklebur (cocklebur; [1]): 0 | Plant response rating, Cocklebur (cocklebur; [2]): 0 | Cocklebur plant response rating (cocklebur; [3]): 0 | Plant response rating, Cocklebur (cocklebur; [12]): 0 | Cocklebur plant response rating (cocklebur; [4]): 0 | Cocklebur plant response rating (cocklebur; [5]): 0 | Plant response rating, Cocklebur (cocklebur; [6]): 0 | Plant response rating, Cocklebur (cocklebur; [7]): 0 | Plant response rating, Giant foxtail (giant foxtail; [1]): 0 | Plant response rating, Giant foxtail (giant foxtail; [2]): 0 | Giant foxtail plant response rating (giant foxtail; [3]): 0 | Giant foxtail plant response rating (giant foxtail; [4]): 0 | Giant foxtail plant response rating (giant foxtail; [5]): 0 | Plant response rating, Giant foxtail (giant foxtail; [6]): 2 | Plant response rating, Giant foxtail (giant foxtail; [7]): 9 | Plant response rating, Crabgrass (crabgrass; [1]): 1 | Plant response rating, Crabgrass (crabgrass; [2]): 2 | Plant response rating, Crabgrass (crabgrass; [12]): 3 | Crabgrass plant response rating (crabgrass; [4]): 0 | Crabgrass plant response rating (crabgrass; [5]): 0 | Plant response rating, Crabgrass (crabgrass; [6]): 0 | Plant response rating, Crabgrass (crabgrass; [7]): 6 | Plant response rating, Blackgrass (blackgrass; [1]): 0 | Plant response rating, Blackgrass (blackgrass; [2]): 0 | Blackgrass plant response rating (blackgrass; [3]): 0 | Plant response rating, Blackgrass (blackgrass; [12]): 0 | Blackgrass plant response rating (blackgrass; [4]): 0 | Blackgrass plant response rating (blackgrass; [5]): 0 | Plant response rating, Blackgrass (blackgrass; [6]): 0 | Blackgrass plant response rating (blackgrass; [7]): 0 | Plant response rating, Soybean (soybean; [1]): 1 | Plant response rating, Soybean (soybean; [2]): 1 | Soybean plant response rating (soybean; [3]): 1 | Soybean plant response rating (soybean; [4]): 0 | Soybean plant response rating (soybean; [5]): 0 | Plant response rating, Soybean (soybean; [6]): 0 | Plant response rating, Soybean (soybean; [7]): 0 | Plant response rating, Nutsedge (purple nutsedge; [1]): 0 | Plant response rating, Nutsedge (purple nutsedge; [2]): 0 | Nutsedge plant response rating (purple nutsedge; [3]): 0 | Plant response rating, Nutsedge (purple nutsedge; [12]): 0 | Nutsedge plant response rating (purple nutsedge; [4]): 0 | Nutsedge plant response rating (purple nutsedge; [5]): 0 | Plant response rating, Nutsedge (purple nutsedge; [6]): 0 | Plant response rating, Nutsedge (purple nutsedge; [7]): 0
